Where “and” joins values, the source holds several entries; their conditions need not be identical. Identical values can stand only once. Counter-ions that a name gives are not always drawn. Like-named read-outs stand apart in the source and are kept apart here.

One data set concerns B16F10. The data set can be described thus: Growth inhibition test (MTT) for cytotoxic properties. Type of data set: cell-based, mouse. The method, then:
(§1) The human large intestine cell lines SW 480 and HT 29 (ATCC No. CCL 228 and HBT 38) and the mouse melanoma cell line B16F10 were grown in Roux dishes in RPMI 1640 medium with addition of 10% FCS. They were then trypsinized and taken up in RPMI plus 10% FCS to a cell count of 50,000 cells/ml. 100 μl of cell suspension/well were added to a 96 microwell plate and incubated for 1 day at 37° C. in a CO2 incubator. A further 100 μl of RPMI Medium and 1 μl of DMSO containing the test substances were then added. The growth was checked after day 3 and day 6. To this end, 40 μl of MTT solution (3-(4,5-dimethylthiazol-2-yl)-2,5-diphenyltetrazoline bromide) having a starting concentration of 5 mg/ml of H2O were added to each microwell. Incubation was carried out for 5 hours in a CO2 incubator at 37° C. The medium was then aspirated and 100 μl of i-propanol/well were added. After shaking for 30 min with 100 μl of H2O, the extinction was measured at 540 nm using a Titertek Multiscan MCC/340 (Flow).
(§2) The cytotoxic action is indicated in Table 1 as the IC50 value in each case for the SW 480 and HT 29 and B16F10 cell lines: […]

A further data set concerns SW 480. The data set is described as above. Type of data set: cell-based, human. The method, then: as §1, §2
The next data set concerns HT 29. The data set is described as above. It counts as cell-based, human. The method, then:
as §1, §2

Data set [1] deals with mouse bone marrow stem cells. The data set can be described thus: Inhibition of the CSF-induced proliferation of mouse bone marrow stem cells (colony formation). The conditions noted are these: recombinant murine GM-CSF, 7 days.
Experimental: Bone marrow cells were washed out of mice femurs. 10^5 cells were incubated at 37° C. and 7% CO2 in McCoy 5A medium (0.3% agar) together with recombinant murine GM-CSF (Genzyme; stem cell colony formation) and the substances (10^−4 to 100 μg/ml). 7 days later, the colonies (<50 cells) and clusters (17-50 cells) were counted.
The test system of data set [2] is large-cell lung carcinoma LXFL 529. The data set can be described thus: In vivo inhibition of tumour growth in the nude mouse model. The conditions noted are these: for Survival time: individual mice. The method, then: (§3) For all in vivo experiments for investigation of the inhibition of tumour growth athymic nude mice (NMRI nu/nu strain) were used. The selected large-cell lung carcinoma LXFL 529 was grown by serial passage in nude mice. The human origin of the tumour was confirmed by isoenzymatic and immunohistochemical methods.
(§4) The tumour was implanted subcutaneously into both flanks of 6 to 8 week old nu/nu nude mice. The treatment was started, depending on the doubling time, as soon as the tumours had reached a diameter of 5-7 mm. The mice were assigned to the treatment group and the control group (5 mice per group with 8-10 assessable tumours) by randomization. The individual tumours of the control group all grew progessively.
(§5) The size of the tumours was measured in two dimensions by means of a slide gauge. The tumour volume, which correlated well with the cell count, was then used for all evaluations. The volume was calculated according to the formula “length×breadth×breadth/2” ([a×b^2]/2, a and b represent two diameters at right angles).
(§6) The values of the relative tumour volume (RTV) were calculated for each individual tumour by dividing the tumour size on day X with the tumour size on day 0 (at the time of randomization). The mean values of the RTV were then used for the further evaluation.
(§7) The inhibition of the increase of the tumour volume (tumour volume of the test group/control group, T/C, in per cent) was the final measured value.
(§8) The administration of the compounds was carried out intraperitoneally (i.p.) on day 1, 2 and 3 after randomization.

Assay in data set [3]: as above
The conditions noted are these: NMRI nu/nu, mouse, in vivo, ip; nude mice, i.p. on day 1, 2 and 3; read-out: Maximum tolerable dose (MTD). The method, then:
as §3, §4, §5, §6, §7, §8

[4] abbreviates: B16-F10, mouse melanoma cell line B16F10, MTT, read-out: IC50 B16F10.
[5] abbreviates: SW480, human large intestine cell line SW 480, MTT, read-out: IC50 SW 480.
The mark [6] stands for this setting: human large intestine cell line HT 29, MTT, read-out: IC50 HT 29.
[7] abbreviates: 6.25 mg/kg/day i.p. on day 1, 2 and 3.
The mark [8] stands for this setting: 12.5 mg/kg/day (MTD) i.p. on day 1, 2 and 3.

For the compound `CCC1(OC(=O)C(C)NC(=O)[C@H](CCCCN)NC(=S)Nc2ccc(OC3OC(C)C(O)C(OCC(=O)O)C3O)cc2)C(=O)OCc2c1cc1n(c2=O)Cc2cc3cc4c(cc3nc2-1)OCO4` (stereo partly drawn) [Example 2.3, 20(S)-10,11-Methylenedioxy-20-O-{N^α-[O-(3-O-carboxymethyl-β-L-fucopyranosyl)-4-hydroxy-phenylamino-thiocarbonyl]-lysyl-alanyl}-camptothecin, hydrochloride], the IC50 with B16F10 (setting [4]) came to 9 nM; in the data set on SW 480 (setting [5]) it was 6 nM; in the data set on HT 29 (setting [6]), 3 nM.

With `CCc1c2c(nc3ccccc13)-c1cc3c(c(=O)n1C2)COC(=O)C3(CC)OC(=O)[C@@H](NC(=O)[C@H](CCCCN)NC(=S)Nc1ccc(OC2OC(C)C(O)C(OC)C2O)cc1)C(C)C` (stereo partly drawn) [Example 1.5, 7-Ethyl-20-O-{N^α-[O-(3-O-methyl-β-L-fucopyranosyl)-4-hydroxyl-phenyl-amino-thiocarbonyl]-lysyl-valyl)-camptothecin, hydrochloride], the values for the IC50 with B16F10 (setting [4]), in the data set with SW 480 (setting [5]) and in the data set with HT 29 (setting [6]) were 300 nM, 100 nM and 60 nM, respectively.

In the case of `CC[C@@]1(OC(=O)[C@H](CC(C)C)NC(=O)[C@H](CCCCN)NC(=S)Nc2ccc(O[C@H]3O[C@@H](C)[C@@H](O)[C@@H](OC)[C@@H]3O)cc2)C(=O)OCc2c1cc1n(c2=O)Cc2c-1nc1cc3c(cc1c2CN1CCN(C)CC1)OCCO3` [Example 5.1, 20(S)-7-[4-(Methylpiperazino)methy]-10,11-(ethylenedioxy)-20-O-{N^α-[O-(3-O-methyl-β-L-fucopyranosyl)4-hydroxy-phenylamino-thiocarbonyl-lysyl-leucyl}-camptothecin, hydrochloride], the values for the IC50 in the data set on B16F10 (setting [4]), with SW 480 (setting [5]) and in the data set on HT 29 (setting [6]) were 200 nM, 70 nM and 40 nM, respectively.

On to `CCc1c2c(nc3ccccc13)-c1cc3c(c(=O)n1C2)COC(=O)[C@]3(O)CC` [7-ethyl-camptothecin], for which, in data set [1], the “IC50, inhibition of the CSF-induced proliferation of mouse bone marrow stem cells” value is 0.002 ng/mL.

For `CCC1(OC(=O)[C@H](C)NC(=O)[C@H](CCCCNC(=S)Nc2ccc(OC3O[C@@H](C)[C@@H](O)[C@@H](OC)[C@@H]3O)cc2)NC(=S)Nc2ccc(OC3O[C@@H](C)[C@@H](O)[C@@H](OC)[C@@H]3O)cc2)C(=O)OCc2c1cc1n(c2=O)Cc2cc3cc4c(cc3nc2-1)OCO4` (stereo partly drawn) [Example 2.1, 20(R,S)-10,11-Methylenedioxy-20-O-{N^α,N^ε-bis-[O-(3-O-methyl-β-L-fucopyranosyl)-4-hydroxy-phenylamino-thiocarbonyl]-lysyl-alanyl}-camptothecin], the IC50 with B16F10 (setting [4]) was determined as 15 nM; in the data set with SW 480 (setting [5]), 7 nM; with HT 29 (setting [6]) it was 5 nM.

As to `CC[C@@]1(OC(=O)[C@H](C)NC(=O)[C@H](CCCCNC(=S)Nc2ccc(OC3O[C@@H](C)[C@@H](O)[C@@H](OC)[C@@H]3O)cc2)NC(=S)Nc2ccc(OC3O[C@@H](C)[C@@H](O)[C@@H](OC)[C@@H]3O)cc2)C(=O)OCc2c1cc1n(c2=O)Cc2c-1nc1ccccc1c2COC(=O)[C@H](C)NC(=O)[C@H](CCCCNC(=S)Nc1ccc(OC2O[C@@H](C)[C@@H](O)[C@@H](OC)[C@@H]2O)cc1)NC(=S)Nc1ccc(OC2O[C@@H](C)[C@@H](O)[C@@H](OC)[C@@H]2O)cc1` (stereo partly drawn) [Example 4.1, 20(S)-7-{N^α,N^ε-bis-[O-(3-O-Methyl-β-L-fucopyranosyl)-4-hydroxy-phenylamino-thiocarbonylmino-thiocarbonyl]-lysyl-alanyloxymethyl}-20-O-{N^α,N^ε-bis-[O-(3-O-methyl-β-L-fucopyranosyl)-4-hydroxy-phenylamino-thiocarbonyl]-lysyl-alanyl}-camptothecin], the IC50 was found to be 300 nM in the data set with B16F10 (Mus musculus, B16-F10, read-out: IC50 B16F10); 40 nM with SW 480 (Homo sapiens, SW480, read-out: IC50 SW 480); 40 nM in the data set on HT 29 (Homo sapiens, HT-29, read-out: IC50 HT 29).

In the case of `CCc1c2c(nc3ccccc13)-c1cc3c(c(=O)n1C2)COC(=O)[C@@]3(CC)OC(=O)[C@H](C)NC(=O)[C@H](CCCCNC(=S)Nc1ccc(OC2O[C@@H](C)[C@@H](O)[C@@H](OC)[C@@H]2O)cc1)NC(=S)Nc1ccc(OC2O[C@@H](C)[C@@H](O)[C@@H](OC)[C@@H]2O)cc1` (stereo partly drawn) [Example 1.1, 20(S)-7-Ethyl-20-O-{N^α, N^ε-bis-[O-(3-O-methyl-β-L-fucopyranosyl)-4-hydroxy-phenylamino-thiocarbony]-lysyl-alanyl}-camptothecin], the IC50 in the data set with B16F10 (setting [4]) was determined as 30 nM; in the data set with SW 480 (setting [5]), 15 nM; in the data set on HT 29 (setting [6]), 10 nM. Moreover, the results for the “Relative body weight on day 7” value in data set [2] (setting [7]) and in data set [2] (setting [8]) were 98 % of day 0 and 95 % of day 0, respectively. Moreover, the “Relative tumour volume on day 14” value is given as 32 % of day 0 in data set [2] (setting [7]) and 0.1 % of day 0 in data set [2] (setting [8]). Moreover, the Survival time in data set [2] (setting [7]) is >21 days (4×) and 13 days; in data set [2] (setting [8]), >21 days. Moreover, in data set [3], the MTD at 3 days amounted to 12.5 mg/kg/day.

As for `CC[C@@]1(OC(=O)[C@H](C)NC(=O)[C@H](CCCCNC(=S)Nc2ccc(OC3O[C@@H](C)[C@@H](O)[C@@H](OC)[C@@H]3O)cc2)NC(=S)Nc2ccc(OC3O[C@@H](C)[C@@H](O)[C@@H](OC)[C@@H]3O)cc2)C(=O)OCc2c1cc1n(c2=O)Cc2cc3c(N)cccc3nc2-1` (stereo partly drawn) [Example 3.1, 20(S)-9-Amino-20-O-{N^α,N^ε-bis-[O-(3-O-methyl-β-L-fucopyranosyl)4-hydroxy-phenylamino-thiocarbonyl]-lysyl-alanyl}-camptothecin], the IC50 is 150 nM with B16F10 (setting [4]), 10 nM with SW 480 (setting [5]) and 8 nM with HT 29 (setting [6]).

`CC[C@@]1(OC(=O)[C@H](CC(C)C)NC(=O)[C@H](CCCCN)NC(=S)Nc2ccc(O[C@H]3O[C@@H](C)[C@@H](O)[C@@H](OC)[C@@H]3O)cc2)C(=O)OCc2c1cc1n(c2=O)Cc2cc3cc4c(cc3nc2-1)OCO4` [Example 2.4, 20(S)-10,11-Methylenedioxy-20-O-{N^α-[O-(3-O-methyl-β-L-fucopyranosyl)-4-hydroxy-phenylamino-thiocarbonyl]-lysyl-leucyl}-camptothecin, hydrochloride]: the IC50 with B16F10 (setting [4]) worked out at 10 nM; in the data set with SW 480 (setting [5]), 5 nM; in the data set on HT 29 (setting [6]), 3 nM.

Consider `CCc1c2c(nc3ccc(O)cc13)-c1cc3c(c(=O)n1C2)COC(=O)C3(CC)OC(=O)[C@@H](NC(=O)[C@H](CCCCN)NC(=S)Nc1ccc(OC2OC(C)C(O)C(OC)C2O)cc1)C(C)C` (stereo partly drawn) [Example 6.1, 7-Ethyl-10-hydroxy-20-O-{N^α-[O-methyl-β-L-fucopyranosyl)-4-hydroxy-phenylamino-thiocarbonyl]-lysyl-valyl}-camptothecin, hydrochloride], for which the figures for the IC50 with B16F10 (setting [4]), with SW 480 (setting [5]) and in the data set on HT 29 (setting [6]) were 3000 nM, 150 nM and 200 nM, respectively.

For `CC[C@@]1(O)C(=O)OCc2c1cc1n(c2=O)Cc2cc3c(N)cccc3nc2-1` [9-amino-camptothecin], the “IC50, inhibition of the CSF-induced proliferation of mouse bone marrow stem cells” value in data set [1] turned out to be 1 ng/mL.

By IC50 is commonly meant the concentration that inhibits the measured activity by half. As usually defined, the MTD is the highest dose tested that stayed within the study's limit of toxicity.
